Key:
CVI-P cells = assay: Cytotoxicity of amphiphile/DNA complexes, percentage of survived cells; conditions: for cell viable: 'at +/−', charge ratio not given
plasmid DNA = assay: DNA condensation/complexation, EtBr displacement assay; type: binding
Experimental: The ability of the cationic amphiphiles to condense DNA was assessed with an EtBr displacement assay. Briefly, in 96 well plates plasmid DNA (0.6 μg per well) was reacted with 0.002% EtBr in 20 mM HEPES—150 mM NaCl buffer, pH 7.4 and fluorescence intensity was measured at 530 nm (excitation) and 590 nm (emission). Intercalation of EtBr molecules between the base pairs of the DNA double helix results in increased fluorescence signal. Immediately thereafter, the cationic liposomes were added to form complexes at different +/−charge ratios and the quenching of fluorescence intensity of EtBr was monitored. Condensation of DNA upon complexation with liposomes results in the displacement of EtBr from DNA and in decreased fluorescence signal. Fluorescence was measured using FL 500 microplate fluorescence reader (Bio-Tek Instruments Inc., Winooski, Vt., USA).
The values are expressed as percentage of the maximum fluorescence signal when EtBr bound to DNA in the absence of an amphiphile. Each data point is from at least triplicate experiment ±S.D.

[1] = tested on: CV-1P (African monkey green kidney fibroblasts cells); assay: In vitro transfection of plasmid DNA, β-galactosidase activity per well; type: cell-based; conditions: CVI-P; for transfection, result in words: entry spans the charge ratios 8-0.5
Experimental: Transfer of plasmid DNA by various compounds was investigated by using CV-1P (African monkey green kidney fibroblasts cells) and D407 (human retinal pigment epithelial) cells.
The cells were cultured in Dulbecco's modified Eagle's medium (DMEM, Gibco), supplemented with 10% fetal bovine serum (FBS), penicillin/streptomycin (100 units/ml and 100 μg/ml respectively) and 2 mM L-glutamine for D 407 cell line. Cell cultures were maintained at 37° C. in a 7% CO2/air incubator. The cells were collected, counted and seeded in growth medium (100 μl) into 96-well culture plate, 20 000 cells per well. One day later the medium was replaced with fresh medium without serum (150 μl)
In the case of confluent CV1-P cells the medium (with of without serum) was changed on fourth day of cell growth before the transfection.
The complexes at different derivative/DNA charge ratios for transfection procedure were prepared just before use in 50 mM MES—50 mM HEPES—75 mM NaCl buffer, pH 7.2 in separate 96 well plates. One hour after changing the serum-free medium with 10% serum the complexes were added to the cells at […]. Dose of DNA per well was 0.6 μg. After 5 h the complexes were removed, the cells were washed with PBS, and the normal growth medium was added. After 45 h of incubation at 37° C. the cells were lysed with 2% Triton X 100, twice deep frozen and the β-galactosidase activity in each well was determined spectrofotometrically with ELx800 automated microplate reader (Bio-Tex Instruments Inc., Winooski, Vt. USA) by monitoring the hydrolysis of o-nitrophenylgalactopyranoside (oNPG) at 405 nm. Purified β-galactosidase from E.coli was used to construct a standard curve and to calculate […] activity in the transfected cells. […] Transfection efficiencies are given as percentage in comparison to transfection efficiency of Lipofectin^R.

[2] = amphiphile/DNA +/− charge ratio 0.5
[3] = amphiphile/DNA +/− charge ratio 1
[4] = amphiphile/DNA +/− charge ratio 2
[5] = amphiphile/DNA +/− charge ratio 4
[6] = amphiphile/DNA +/− charge ratio 8

CCCCCCCCCCCCCCCC(=O)OCCCOC(=O)C1=C(C)NC(C)=C(C(=O)OCCCOC(=O)CCCCCCCCCCCCCCC)C1c1ccc[n+](C)c1.I.[I-] [III, 1′,4′-Dihydro-1,2′,6′-trimethyl-3′,5′-bis[(3-palmitoyloxypropoxy)carbonyl]-3,4′-bipyridinium iodide]
cytotoxicity as a percentage of survived cells (CVI-P cells; [2]): 87,86%
cytotoxicity as a percentage of survived cells (CVI-P cells; [3]): 81,86%
cytotoxicity as a percentage of survived cells (CVI-P cells; [4]): 72,04%
cytotoxicity as a percentage of survived cells (CVI-P cells; [5]): 54,84%
cytotoxicity as a percentage of survived cells (CVI-P cells; [6]): 68,47%
melting point: 143 to 146 °C
complexation, percentage of the maximum fluorescence signal when EtBr bound to DNA in the absence of an amphiphile (plasmid DNA; [2]): 93,2%
complexation, percentage of the maximum fluorescence signal when EtBr bound to DNA in the absence of an amphiphile (plasmid DNA; [3]): 83,2%
complexation, percentage of the maximum fluorescence signal when EtBr bound to DNA in the absence of an amphiphile (plasmid DNA; [4]): 76,7%
complexation, percentage of the maximum fluorescence signal when EtBr bound to DNA in the absence of an amphiphile (plasmid DNA; [5]): 74,6%
complexation, percentage of the maximum fluorescence signal when EtBr bound to DNA in the absence of an amphiphile (plasmid DNA; [6]): 74,7%
transfection, result in words [1]: No signal

Br.CCCCCCCCCCCCCCOC(=O)C1=C(C)NC(C)=C(C(=O)OCCCCCCCCCCCCCC)C1c1ccc[n+](CCCCCCCCC)c1.[Br-] [XIV, 1′,4′-Dihydro-2′,6′-dimethyl-1-nonyl-3′,5′-bis(tetradecyloxycarbonyl)-3,4′-bipyridinium bromide]
cytotoxicity as a percentage of survived cells (CVI-P cells; [2]): 103,98%
cytotoxicity as a percentage of survived cells (CVI-P cells; [3]): 93,16%
cytotoxicity as a percentage of survived cells (CVI-P cells; [4]): 51,04%
cytotoxicity as a percentage of survived cells (CVI-P cells; [5]): 34,5%
cytotoxicity as a percentage of survived cells (CVI-P cells; [6]): 44,62%
melting point: 124 to 126 °C (dec.)
complexation, percentage of the maximum fluorescence signal when EtBr bound to DNA in the absence of an amphiphile (plasmid DNA; [2]): 100%
complexation, percentage of the maximum fluorescence signal when EtBr bound to DNA in the absence of an amphiphile (plasmid DNA; [3]): 96,2%
complexation, percentage of the maximum fluorescence signal when EtBr bound to DNA in the absence of an amphiphile (plasmid DNA; [4]): 91,03%
complexation, percentage of the maximum fluorescence signal when EtBr bound to DNA in the absence of an amphiphile (plasmid DNA; [5]): 88,9%
complexation, percentage of the maximum fluorescence signal when EtBr bound to DNA in the absence of an amphiphile (plasmid DNA; [6]): 93,7%
transfection efficiency [1, 2]: 0,75 β-galactosidase units per well
transfection efficiency [1, 3]: 3,38 β-galactosidase units per well
transfection efficiency [1, 4]: 1,5 β-galactosidase units per well

Br.CCCCCCCCCCCCCCCC[n+]1cccc(C2C(C(=O)OC3CC(C)CCC3C(C)C)=C(C)NC(C)=C2C(=O)OC2CC(C)CCC2C(C)C)c1.[Br-] (stereo not drawn) [XVIII, 1-Hexadecyl-1′,4′-dihydro-3′,5′-bis(menthyloxycarbonyl)-2′,6′-dimethyl-3,4′-bipyridinium bromide]
cytotoxicity as a percentage of survived cells (CVI-P cells; [2]): 85,15%
cytotoxicity as a percentage of survived cells (CVI-P cells; [3]): 83,94%
cytotoxicity as a percentage of survived cells (CVI-P cells; [4]): 76,51%
cytotoxicity as a percentage of survived cells (CVI-P cells; [5]): 9,08%
cytotoxicity as a percentage of survived cells (CVI-P cells; [6]): 3,05%
melting point: 115 to 117 °C
complexation, percentage of the maximum fluorescence signal when EtBr bound to DNA in the absence of an amphiphile (plasmid DNA; [2]): 97,5%
complexation, percentage of the maximum fluorescence signal when EtBr bound to DNA in the absence of an amphiphile (plasmid DNA; [3]): 90,8%
complexation, percentage of the maximum fluorescence signal when EtBr bound to DNA in the absence of an amphiphile (plasmid DNA; [4]): 82,6%
complexation, percentage of the maximum fluorescence signal when EtBr bound to DNA in the absence of an amphiphile (plasmid DNA; [5]): 78,5%
complexation, percentage of the maximum fluorescence signal when EtBr bound to DNA in the absence of an amphiphile (plasmid DNA; [6]): 79,6%

Br.CCCCCCCCC[n+]1cccc(C2C(C(=O)OCC)=C(C)NC(C)=C2C(=O)OCC)c1.[Br-] [XIII, 3′,5′-Bis(ethoxycarbonyl)-1′,4′-dihydro-2′,6′-dimethyl-1-nonyl-3,4′-bipyridinium bromide]
melting point: 142 to 143 °C (dec.)
transfection, result in words [1]: No signal

CC1=C(C(=O)OC2CC3CCC2(C)C3(C)C)C(c2ccc[n+](C)c2)C(C(=O)OC2CC3CCC2(C)C3(C)C)=C(C)N1.I.[I-] (stereo not drawn) [XI, 3′,5′-Bis(bornyloxycarbonyl)-1′,4′-dihydro-1,2′,6′-trimethyl-3,4′-bipyridinium iodide]
cell viable (CVI-P cells): 50%
melting point: 271 to 274 °C
transfection, result in words [1]: No signal

CC1=C(C(=O)OC2CC3CCC2(C)C3(C)C)C(c2cc[n+](C)cc2)C(C(=O)OC2CC3CCC2(C)C3(C)C)=C(C)N1.I.[I-] (stereo not drawn) [Example 2u, 3′,5′-Bis(bornyloxycarbonyl)-1′,4′-dihydro-1,2′,6′-trimethyl-4,4′-bipyridinium iodide]
melting point: 270 °C (dec.)

CC1=C(C(=O)OC(C)(C)C)C(c2ccc[n+](C)c2)C(C(=O)OC(C)(C)C)=C(C)N1.I.[I-] [Example 2c, 3′,5′-Bis[(1,1-dimethylethoxy)carbonyl]-1′,4′-dihydro-1,2′,6′-trimethyl-3,4′-bipyridinium iodide]
melting point: 166 to 169 °C

CC1=C(C(=O)OC2CC(C)CCC2C(C)C)C(c2ccc[n+](C)c2)C(C(=O)OC2CC(C)CCC2C(C)C)=C(C)N1.I.[I-] (stereo not drawn) [X, 1′,4′-Dihydro-3′,5′-bis(menthyloxycarbonyl)-1,2′,6′-trimethyl-3,4′-bipyridinium iodide]
cell viable (CVI-P cells): 50%
melting point: 156 to 159 °C
transfection, result in words [1]: No signal

Br.CCOC(=O)C1=C(C)NC(C)=C(C(=O)OCC)C1c1cc[n+](CC(=O)c2ccc3ccccc3c2)cc1.[Br-]
melting point: 211 to 216 °C

CCCCOC(=O)C1=C(C)NC(C)=C(C(=O)OCCCC)C1c1ccc[n+](C)c1.I.[I-] [Example 2a, 3′,5′-Bis(butoxycarbonyl)-1′,4′-dihydro-1,2′,6′-trimethyl-3,4′-bipyridinium iodide]
melting point: 161 to 164 °C

Br.CCCCCCCCCCCCCCCC[n+]1ccc(C2C(C(=O)OCC)=C(C)NC(C)=C2C(=O)OCC)cc1.[Br-]
melting point: 95 to 98 °C

Br.CCOC(=O)C[n+]1cccc(C2C(C(=O)OC3CC(C)CCC3C(C)C)=C(C)NC(C)=C2C(=O)OC2CC(C)CCC2C(C)C)c1.[Br-] (stereo not drawn)
melting point: 180 °C (dec.)

CC1=C(C(=O)OCc2ccc([N+](=O)[O-])cc2)C(c2ccc[n+](C)c2)C(C(=O)OCc2ccc([N+](=O)[O-])cc2)=C(C)N1.I.[I-]
melting point: 202 to 203 °C

Br.CCCOCCOC(=O)C1=C(C)NC(C)=C(C(=O)OCCOCCC)C1c1ccc[n+](CC(=O)c2ccccc2)c1.[Br-]
melting point: 135 to 138 °C

Br.CCCCCCCCCCCCCCCC[n+]1cccc(C2C(C(=O)OCC)=C(C)NC(C)=C2C(=O)OCC)c1.[Br-] [XV, 3′,5′-Bis (ethoxycarbonyl)-1-hexadecyl-1′,4′-dihydro-2′,6′-dimethyl-3,4′-bipyridinium bromide]
melting point: 135 to 136 °C
transfection, result in words [1]: No signal

Br.CCOC(=O)C[n+]1ccccc1C1C(C(=O)OCC)=C(C)NC(C)=C1C(=O)OCC.[Br-]
melting point: 197 to 199 °C

Br.CCCCCCCCCCCCCCCC[n+]1cccc(C2C(C(=O)OC(C)CC)=C(C)NC(C)=C2C(=O)OC(C)CC)c1.[Br-] (stereo not drawn)
melting point: 159 to 165 °C

Br.CCOC(=O)C[n+]1ccc(C2C(C(=O)OCC)=C(C)NC(C)=C2C(=O)OCC)cc1.[Br-]
melting point: 140 to 143 °C

Br.CCOCCOC(=O)C1=C(C)NC(C)=C(C(=O)OCCOCC)C1c1ccc[n+](CC(=O)OCC)c1.[Br-]
melting point: 163 to 165 °C

Br.CCCCCCCCCCCCCCCCOC(=O)C1=C(C)NC(C)=C(C(=O)OCCCCCCCCCCCCCCCC)C1c1ccc[n+](CC(=O)c2ccccc2)c1.[Br-]
melting point: 148 to 150 °C

Br.CCOC(=O)C[n+]1cccc(C2C(C(=O)OC)=C(C)NC(C)=C2C(=O)OC)c1.[Br-]
melting point: 180 °C (dec.)

Br.CCOC(=O)C1=C(C)NC(C)=C(C(=O)OCC)C1c1ccc[n+](Cc2ccc([N+](=O)[O-])cc2)c1.[Br-]
melting point: 212 to 213 °C (dec.)

Br.CCOC(=O)C1=C(C)NC(C)=C(C(=O)OCC)C1c1ccc[n+](CCCCCCCCCCC(=O)O)c1.[Br-]
melting point: 134 to 136 °C

Br.CCCCCCCCCCCCCCCC[n+]1cccc(C2C(C(=O)OCCOCCC)=C(C)NC(C)=C2C(=O)OCCOCCC)c1.[Br-] [XVI, 1-Hexadecyl-1′,4′-dihydro-2′,6′-dimethyl-3′,5′-bis[(2-propoxyethoxy)carbonyl]-3,4′-bipyridinium bromide]
cell viable (CVI-P cells): 50%
melting point: 93 to 96 °C
transfection, result in words [1]: No signal
